Assay [1] has as its target T1, ErbB2 or EGFR.
T1 construct: enzymes purified from a baculovirus expression system; Reagent production was conducted essentially as described in Brignola, P. S., et al, (2002) J. Biol. Chem. 277(2): 1576-1585
Briefly: ErbB family substrate phosphorylation enzyme assay (HTRF), Method A or Method B. It is filed as biochemical. The note with it: Method B: enzyme mix pre-incubated with compound 1 hour at 20° C., started with substrate mix. A digest of the protocol: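 Baculovirus-expressed EGFR or ErbB2 (0.8 or 10 nM in enzyme mix) phosphorylates biotinylated Peptide C with 20 µM ATP and 0.8 µM peptide (substrate-mix levels), MnCl2, pH 7.5. Reaction ran 90 min at 20 °C with EDTA stop and HTRF anti-phosphotyrosine read. Method A: enzyme added last; Method B: 1 h enzyme–compound preincubation.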
On the technique in general: TR-FRET usually uses a lanthanide donor and a delayed reading to cut background.

For assay [2], the system named is BT474 and HN5 tumor cell lines. In words: Celltiter Glo growth inhibition assay (cellular Method B). The class given is cell-based. The conditions noted are these: Homo sapiens, BT-474, 72 h, 3 days, read-out: Activity (Method): growth inhibition IC50 class. As for the experimental part:
(§1) Human breast tumor cells (BT474) were cultured in RPMI, (Invitrogen, 22400) containing 10% fetal bovine serum (FBS). Human head and neck tumor cells (HN5) were cultured in low glucose DMEM (Invitrogen, 12320) containing 10% FBS. Human colon tumor cells (Colo205) were cultured in DMEM (Invitrogen, 10564) containing 10% FBS. All cell lines were maintained at 37° C. in a humidified 5% CO2, 95% air incubator. Cells were harvested using trypsin/EDTA, counted using a haemocytometer, and plated in 30 microliters of the appropriate media described above, at the following densities, in a half area, black-walled, 96-well tissue culture plate (Corning 3882): BT474 3,000 cells/well, HN5 500 cells/well and Colo205 cells, 3,000 cells/well. The next day, compounds were diluted in DMEM containing […] gentamicin, from 10 mM stock solutions in DMSO. 30 microliters/well of these dilutions were added to the 30 microliters/well of media currently on the cell plates. Medium containing 0.6% DMSO was added to control wells. The final concentration of DMSO in all wells was 0.3%. Cells were incubated at 37° C., 5% CO2 for 3 days. Cell biomass was estimated using Celltiter Glo (Promega G7571). Briefly, plates were removed from the incubator and allowed to equilibrate to rt for 30 minutes. 60 microliters of Celltiter Glo reagent were added to each well of the treated cells and plates were shaken on an orbital plate shaker for 2 min. Plates were incubated without shaking for 30 more min and read in a luminometer with an integration time of 0.5 seconds per well. Percent inhibition of cell growth was calculated relative to vehicle treated control wells. Concentration of compound that inhibits 50% of vehicle control cell growth (IC50) was interpolated using nonlinear regression (Levenberg-Marquardt) and the equation, y=Vmax*(1−(x/(K+x)))+Y2, where “K” was equal to the IC50.
Background: ATP-based viability assays read luminescence as a measure of living cells.

For assay [3], the system named is Colo205 tumor cell lines. Briefly: Celltiter Glo growth inhibition assay (cellular Method B), Colo205. It is filed as cell-based. The note with it: Homo sapiens, COLO 205, 72 h, 3 days, read-out: Activity (Method): growth inhibition IC50 class. As for the experimental part:
as §1

By pIC50 is commonly meant the IC50 on a negative log10 scale, so that one unit is a factor of ten.

Each structure is given as a SMILES string. pIC50: −log10 of the molar value.

Take `CN(C)c1cccc2c(-c3ccnc(Nc4cccc(F)c4)n3)c(-c3cccc(NC(=O)c4c(F)cccc4F)c3)nn12.O=C(O)C(F)(F)F` [Example 175, N-[3-(7-(Dimethylamino)-3-{2-[(3-fluorophenyl)amino]-4-pyrimidinyl}pyrazolo[1,5-a]pyridin-2-yl)phenyl]-2,6-difluorobenzamide trifluoroacetate]: the “Activity (Method): pIC50 class against ErbB2 or EGFR” value (“Activity (Method): pIC50 class” below) in assay [1] is listed as “+++ (B) (at least one pIC50 measurement of greater than 7 against either ErbB2 or EGFR)”. Further, the negative-log IC50 (pIC50) was 6.00 to 7.00 in assay [2] and below 6.00 in assay [3].
The like results for `CN(C)CCOc1ccc(Nc2nccc(-c3c(-c4cccc(NC(=O)c5c(F)cccc5F)c4)nn4ccccc34)n2)cc1Cl` [Example 128, N-[3-(3-{2-[(3-Chloro-4-{[2-(dimethylamino)ethyl]-oxy}phenyl)amino]-4-pyrimidinyl}pyrazolo[1,5-a]pyridin-2-yl)phenyl]-2,6-difluorobenzamide] were, in that order, “+++ (B) (at least one pIC50 measurement of greater than 7 against either ErbB2 or EGFR)”, above 7.00 and below 6.00.
The like results for `CN(C)CCOc1cccc(Nc2nccc(-c3c(-c4cccc(NC(=O)c5c(F)cccc5F)c4)nn4cc(F)ccc34)n2)c1` [Example 171, N-[3-(3-{2-[(3-{[2-(Dimethylamino)ethyl]oxy}phenyl)amino]-4-pyrimidinyl}-6-fluoropyrazolo[1,5-a]pyridin-2-yl)phenyl]-2,6-difluorobenzamide] were, in that order, “+++ (B) (at least one pIC50 measurement of greater than 7 against either ErbB2 or EGFR)”, above 7.00 and below 6.00.
Regarding `O=C(Nc1cccc(-c2nn3cccc(F)c3c2-c2ccnc(Nc3cccc(CN4CCCC4)c3)n2)c1)c1c(F)cccc1F` [Example 170, 2,6-Difluoro-N-{3-[4-fluoro-3-(2-{[3-(1-pyrrolidinylmethyl)-phenyl]amino}-4-pyrimidinyl)pyrazolo[1,5-a]pyridin-2-yl]phenyl}benzamide], in assay [1], the “Activity (Method): pIC50 class” value is “+++ (B) (at least one pIC50 measurement of greater than 7 against either ErbB2 or EGFR)”. Besides, the pIC50 in assay [2] is 6.00 to 7.00; in assay [3], below 6.00.
For `Cc1ccc(F)c(C(=O)Nc2cccc(-c3nn4ccccc4c3-c3ccnc(Nc4ccc(OCCN(C)C)c(Cl)c4)n3)c2)c1F.O=C(O)C(F)(F)F` [Example 186, N-[3-(3-{2-[(3-chloro-4-{[2-(dimethylamino)ethyl]oxy}phenyl)-amino]-4-pyrimidinyl}pyrazolo[1,5-a]pyridin-2-yl)phenyl]-2,6-difluoro-3-methylbenzamide-TFA], the “Activity (Method): pIC50 class” value in assay [1] is given as “+++ (B) (at least one pIC50 measurement of greater than 7 against either ErbB2 or EGFR)”. Moreover, the pIC50 was above 7.00 in assay [2] and below 6.00 in assay [3].
The corresponding values for `NCc1cccc(Nc2nccc(-c3c(-c4cccc(NC(=O)c5c(F)cccc5F)c4)nn4ccccc34)n2)c1` [Example 180, N-{3-[3-(2-{[3-(Aminomethyl)phenyl]amino}-4-pyrimidinyl)pyrazolo[1,5-a]pyridin-2-yl]phenyl}-2,6-difluorobenzamide] are “+++ (B) (at least one pIC50 measurement of greater than 7 against either ErbB2 or EGFR)”, above 7.00 and below 6.00.
The corresponding values for `CS(=O)(=O)CCNCc1cccc(Nc2nccc(-c3c(-c4cccc(NC(=O)c5cc(F)ccc5F)c4)nn4ccccc34)n2)c1` [Example 187, 2,5-Difluoro-N-{3-[3-(2-{[3-({[2-(methylsulfonyl)ethyl]amino}-methyl)phenyl]amino}-4-pyrimidinyl)pyrazolo[1,5-a]pyridin-2-yl]phenyl}benzamide] are “+++ (B) (at least one pIC50 measurement of greater than 7 against either ErbB2 or EGFR)”, above 7.00 and 6.00 to 7.00.
Regarding `CN1CCc2ccc(Nc3ncc(F)c(-c4c(-c5cccc(NC(=O)c6c(F)cccc6F)c5)nn5ccccc45)n3)cc2C1` [Example 203, 2,6-Difluoro-N-[3-(3-{5-fluoro-2-[(2-methyl-1,2,3,4-tetrahydro-7-isoquinolinyl)amino]-4-pyrimidinyl}pyrazolo[1,5-a]pyridin-2-yl)phenyl]benzamide], the “Activity (Method): pIC50 class” value in assay [1] is on record as “+++ (B) (at least one pIC50 measurement of greater than 7 against either ErbB2 or EGFR)”. Also, the negative-log IC50 (pIC50) in assay [2] is above 7.00; in assay [3], 6.00 to 7.00.
The like results for `COc1ccc(Nc2nccc(-c3c(-c4cccc(NC(=O)c5c(F)cccc5F)c4)nn4ccccc34)n2)cc1OCCCN(C)C.O=CO` [Example 165, N-{3-[3-(2-{[3-{[3-(Dimethylamino)propyl]oxy}-4-(methyloxy)-phenyl]amino}-4-pyrimidinyl)pyrazolo[1,5-a]pyridin-2-yl]phenyl}-2,6-difluorobenzamide formic acid salt] were, in that order, “+++ (B) (at least one pIC50 measurement of greater than 7 against either ErbB2 or EGFR)”, above 7.00 and below 6.00.
The like results for `CS(=O)(=O)Cc1cccc(Nc2nccc(-c3c(-c4cccc(NC(=O)c5c(F)cccc5F)c4)nn4ccccc34)n2)c1` [Example 135, 2,6-Difluoro-N-(3-{3-[2-({3-[(methylsulfonyl)methyl]phenyl}amino)-4-pyrimidinyl]pyrazolo[1,5-a]pyridin-2-yl}phenyl)benzamide] were, in that order, “+++ (B) (at least one pIC50 measurement of greater than 7 against either ErbB2 or EGFR)”, above 7.00 and below 6.00.
The like results for `O=C(Nc1cccc(-c2nn3cc(C(F)(F)F)ccc3c2-c2ccnc(Nc3cccc(F)c3)n2)c1)c1c(F)cccc1F` [Example 191, 2,6-Difluoro-N-{3-[3-{2-[(3-fluorophenyl)amino]-4-pyrimidinyl}-6-(trifluoromethyl)pyrazolo[1,5-a]pyridin-2-yl]phenyl}benzamide] were, in that order, “++ (B) (at least one pIC50 measurement greater than 6 against either ErbB2 or EGFR but no measurement greater than pIC50 of 7)”, below 6.00 and below 6.00.
Take `CS(=O)(=O)CCNCc1cccc(Nc2nccc(-c3c(-c4cccc(NC(=O)c5c(F)cccc5F)c4)nn4ccccc34)n2)c1` [Example 188, 2,6-Difluoro-N-{3-[3-(2-{[3-({[2-(methylsulfonyl)ethyl]amino}-methyl)phenyl]amino}-4-pyrimidinyl)pyrazolo[1,5-a]pyridin-2-yl]phenyl}benzamide]: the “Activity (Method): pIC50 class” value in assay [1] is given as “+++ (B) (at least one pIC50 measurement of greater than 7 against either ErbB2 or EGFR)”. Also, the negative logarithm of the IC50 (pIC50) in assay [2] is above 7.00; in assay [3] it was below 6.00.
The like results for `CNCc1cccc(Nc2nccc(-c3c(-c4cccc(NC(=O)c5c(F)cccc5F)c4)nn4ccccc34)n2)c1` [Example 183, 2,6-Difluoro-N-(3-{3-[2-({3-[(methylamino)methyl]phenyl}amino)-4-pyrimidinyl]pyrazolo[1,5-a]pyridin-2-yl}phenyl)benzamide] were, in that order, “+++ (B) (at least one pIC50 measurement of greater than 7 against either ErbB2 or EGFR)”, above 7.00 and below 6.00.
The like results for `NCc1cccc(Nc2nccc(-c3c(-c4cccc(NC(=O)c5cc(F)ccc5F)c4)nn4ccccc34)n2)c1` [Example 184, N-{3-[3-(2-{[3-(Aminomethyl)phenyl]amino}-4-pyrimidinyl)pyrazolo[1,5-a]pyridin-2-yl]phenyl}-2,5-difluorobenzamide] were, in that order, “+++ B) (at least one pIC50 measurement of greater than 7 against either ErbB2 or EGFR)”, above 7.00 and below 6.00.
The corresponding values for `CN1CCc2ccc(Nc3nccc(-c4c(-c5cccc(NC(=O)c6c(F)cccc6F)c5)nn5cccc(F)c45)n3)cc2C1` [Example 169, 2,6-Difluoro-N-[3-(4-fluoro-3-{2-[(2-methyl-1,2,3,4-tetrahydro-7-isoquinolinyl)amino]-4-pyrimidinyl}pyrazolo[1,5-a]pyridin-2-yl)phenyl]benzamide] are “+++ (B) (at least one pIC50 measurement of greater than 7 against either ErbB2 or EGFR)”, above 7.00 and below 6.00.

The values are drawn from patent publication US7812022B2 (GlaxoSmithKline LLC, priority 2004, dated 2010).
